Data published in publication PMC9712658, “Structural analysis of the 2-oxoglutarate binding site of the circadian rhythm linked oxygenase JMJD5” (Scientific Reports, 2022).

Molecular target: T1, full-length JMJD5 (aa 1–416, JMJD5^FL) (Homo sapiens, UniProt Q8N371)
T1 construct: 10 µM full-length JMJD5 (aa 1–416); His6 (N); made in house; host or cells: Escherichia coli Rosetta2(DE3)-pLysS
Assay: JMJD5 inhibition assay by MALDI-TOF MS (hydroxylation of RpS6_129-144 peptide)
Type: biochemical
Details: for IC50: 10 µM JMJD5^FL, 100 µM Fe(II), 400 µM ascorbate, 50 µM 2OG, 100 µM RpS6_129-144, inhibitor 0–10 mM, mean (n = 3) ± SD
From the text: To explore inhibition involving orthosteric 2OG ligand binding in the JMJD5 2OG pocket, we initially screened a focused set of compounds comprising relatively close 2OG mimetics, tricarboxylic acid (TCA) cycle intermediates, hypoxia inducible factor (HIF) prolyl hydroxylase (PHD) inhibitors, and JmjC histone demethylase (KDM) inhibitors (Supplementary Fig. S1).
[…] Hydroxylation of RpS6 peptide was monitored by MALDI-TOF MS and intensity of hydroxylated peak was quantified to determine the extent of inhibition caused by inhibitor.

T1 sequence (Q8N371 whole entry, the tested form may be a part): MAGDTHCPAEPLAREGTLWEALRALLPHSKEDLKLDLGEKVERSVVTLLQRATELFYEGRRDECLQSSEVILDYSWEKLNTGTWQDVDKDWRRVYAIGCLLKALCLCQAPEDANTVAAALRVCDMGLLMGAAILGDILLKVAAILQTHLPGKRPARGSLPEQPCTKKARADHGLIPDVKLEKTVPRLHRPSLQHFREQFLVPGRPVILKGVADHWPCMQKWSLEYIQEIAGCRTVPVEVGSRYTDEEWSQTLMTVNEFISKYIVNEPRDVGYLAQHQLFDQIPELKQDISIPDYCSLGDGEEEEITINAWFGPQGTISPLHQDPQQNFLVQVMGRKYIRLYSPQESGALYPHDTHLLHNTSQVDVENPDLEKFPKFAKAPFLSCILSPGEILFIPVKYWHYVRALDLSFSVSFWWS

Row | IC50 | SMILES | JMJD5 inhibition (in words) (screen at 0.1, 1 and 10 mM and/or IC50 determination)
1 | 66 ± 1.5 µM | O=C(O)c1ccnc(-c2cc(C(=O)O)ccn2)c1 [2.4-BPDCA, bipyridinyl-2,4-dicarboxylate] | –
2 | 288 ± 1.5 µM | O=C(O)CNC(=O)c1ncc(-c2cccc(F)c2)cc1O [AKB-6899] | –
3 | 820 ± 1.8 µM | O=C(O)CC(O)(CC(=O)O)C(=O)O [Citrate] | –
4 | 1268 ± 1.5 µM | O=C(O)CC[C@@H](O)C(=O)O [D-2HG, D-2-hydroxyglutarate] | –
5 | 239 ± 1.9 µM | Cc1nc(C(=O)NCC(=O)O)c(O)c2ccc(Oc3ccccc3)cc12 [FG4592] | –
6 | 96 ± 1.7 µM | O=C(O)c1ccc(O)c2ncccc12 [IOX1, 5-carboxy-8-hydroxyquinoline] | –
7 | 621 ± 1.4 µM | CCN(CCN(C)C)C(=O)CNCc1cc(C(=O)O)ccn1 [KDM5-C49] | –
8 | 340 ± 1.3 µM | O=C(O)CC[C@H](O)C(=O)O [L-2HG, L-2-hydroxyglutarate] | –
9 | 15 ± 1.4 µM | CN(C)CCCNC(=O)c1ccc(-c2cc(O)c3ncccc3c2)cc1 [ML-324] | –
10 | 1604 ± 1.4 µM | O=C(O)CC(O)C(=O)O (stereo not shown) [Malate] | –
11 | 6 ± 1.4 µM | O=C(O)CNC(=O)C(=O)O [NOG, N-oxalylglycine] | –
12 | 85 ± 1.4 µM | O=C(O)CC(=O)C(=O)O [Oxaloacetate] | –
13 | 500 ± 1.6 µM | CC(=O)C(=O)O [Pyruvate] | –
14 | 840 ± 1.4 µM | O=C(O)CCC(=O)O [Succinate] | –
15 | – | CN(C)NC(=O)CCC(=O)O [daminozide] | Neither daminozide (a plant growth regulator that inhibits the JmjC KDM 2/7 oxygenases[56]), nor its structural derivative 7 appear to inhibit JMJD5

Row | SMILES | IC50 | JMJD5 inhibition (in words) (screen at 0.1, 1 and 10 mM and/or IC50 determination)
16 | O=C(O)CCNc1cc(N2CCc3ccccc3CC2)nc(-c2ccccn2)n1 [GSK-J1] | 67 ± 1.5 µM | –
